According to patent US6426369B1, “Oxethazaine as antimicrobial agent” (Eisai Co., Ltd., priority 1997, dated 2002):
Where two headings read alike, the source gives them in different places.

Legend:
H. pylori [1] = test: Antimicrobial activity test 6: oxethazaine in combination with an antibiotic (AMPC, CAM, RXM), checker board method; assay type: cell-based, Helicobacter pylori; parameters: key to growth of H. pylori: “−” indicates the inhibited growth of H. pylori (presence of antimicrobial activity); “+” indicates the growth of H. pylori (absence of antimicrobial activity); conditions: for combined effect of oxethazaine and CAM / combined effect of oxethazaine and RXM: checker board; for effect of combined use: oxethazaine in combination with AMPC
From the text: The effect of combined use with amoxicillin (AMPC), clarithromycin (CAM) or roxithromycin (RXM) was examined in the same manner as in antimicrobial activity test 1, using the checker board method.

[2] = Acute toxicity test, single oral dose, mice; conditions: Slc:ICR, mouse, in vivo, read-out: LD50 (Oral administration)
Method: (§1) A toxicity test was conducted by orally administering a single dose into 7- to 8-weeks old Slc:SD rats and Slc:ICR mice, each group consisting of 5 females and 5 males (medium; physiological saline).

H. pylori [3] = test: Antimicrobial activity test 1: anti-H. pylori activity of a single compound (agar plate method); assay type: cell-based, Helicobacter pylori; conditions: for MIC: Helicobacter pylori
[4] = Acute toxicity test, single oral dose, rats; assay type: in vivo, Slc:SD rats; conditions: for LD50: Slc:SD, rat, in vivo, po, single oral dose, read-out: LD50 (Oral administration)
Method: as §1

CN(C(=O)CN(CCO)CC(=O)N(C)C(C)(C)Cc1ccccc1)C(C)(C)Cc1ccccc1 [Oxethazaine, 2,2′-[(2-hydroxyethyl)amino]bis[N-(1,1-dimethyl-2-phenylethyl)-N-methylacetamide]]
excellent anti-H. pylori activity: anti-H. pylori activity (H. pylori [3]; conclusion from test 1)
EH 16 (additive effect): effect of combined use (H. pylori [1]; the 36th table, strain EH 16) | effect of combined use (H. pylori [1]; the 37th table, strain EH 16)
−: growth of H. pylori (H. pylori [1]; strain 90-407, CAM 6.25 μg/ml, oxethazaine μg/ml: 100, 50, 25, 12.5, 6.25, 3.13, 0) | growth of H. pylori (H. pylori [1]; strain 90-407, CAM 12.5 μg/ml, oxethazaine μg/ml: 100, 50, 25, 12.5, 6.25, 3.13, 0) | growth of H. pylori (H. pylori [1]; strain 90-407, CAM 25 μg/ml, oxethazaine μg/ml: 100, 50, 25, 12.5, 6.25, 3.13, 0) | growth of H. pylori (H. pylori [1]; strain 90-407, CAM 50 μg/ml, oxethazaine μg/ml: 100, 50, 25, 12.5, 6.25, 3.13, 0) | growth of H. pylori (H. pylori [1]; strain 90-407, CAM 100 μg/ml, oxethazaine μg/ml: 100, 50, 25, 12.5, 6.25, 3.13, 0) | growth of H. pylori (H. pylori [1]; strain 90-407, oxethazaine 25 μg/ml, AMPC 0) | growth of H. pylori (H. pylori [1]; strain 90-407, oxethazaine 50 μg/ml, AMPC 0) | growth of H. pylori (H. pylori [1]; strain 90-407, oxethazaine 100 μg/ml, AMPC 0) | growth of H. pylori (H. pylori [1]; strain 90-414, oxethazaine 25 μg/ml, AMPC 0) | growth of H. pylori (H. pylori [1]; strain 90-414, oxethazaine 50 μg/ml, AMPC 0) | growth of H. pylori (H. pylori [1]; strain 90-414, oxethazaine 100 μg/ml, AMPC 0) | growth of H. pylori (H. pylori [1]; strain NCTC11637, oxethazaine 12.5 μg/ml, CAM 0) | growth of H. pylori (H. pylori [1]; strain NCTC11637, oxethazaine 25 μg/ml, CAM 0) | growth of H. pylori (H. pylori [1]; strain NCTC11637, oxethazaine 50 μg/ml, CAM 0) | growth of H. pylori (H. pylori [1]; strain NCTC11637, oxethazaine 100 μg/ml, CAM 0) | growth of H. pylori (H. pylori [1]; strain NCTC11639, oxethazaine 25 μg/ml, CAM 0) | growth of H. pylori (H. pylori [1]; strain NCTC11639, oxethazaine 50 μg/ml, CAM 0) | growth of H. pylori (H. pylori [1]; strain NCTC11639, oxethazaine 100 μg/ml, CAM 0)
~25 µg/mL: MIC (H. pylori [3]; summary of the strains of antimicrobial activity test 1, read-out: MIC for each strain)
25 µg/mL: MIC (H. pylori [3]; NCTC11637, strain NCTC11637, read-out: MIC (growth inhibition)) | MIC (H. pylori [3]; NCTC11916, strain NCTC11916, read-out: MIC (growth inhibition)) | MIC (H. pylori [3]; strain 89-357, read-out: MIC (growth inhibition)) | MIC (H. pylori [3]; strain 89-360 (1), read-out: MIC (growth inhibition)) | MIC (H. pylori [3]; strain 89-360, read-out: MIC (growth inhibition)) | MIC (H. pylori [3]; strain 90-384, read-out: MIC (growth inhibition)) | MIC (H. pylori [3]; strain 90-388 (1), read-out: MIC (growth inhibition)) | MIC (H. pylori [3]; strain 90-388, read-out: MIC (growth inhibition)) | MIC (H. pylori [3]; strain 90-390 (1), read-out: MIC (growth inhibition)) | MIC (H. pylori [3]; strain 90-390, read-out: MIC (growth inhibition)) | MIC (H. pylori [3]; strain 90-392, read-out: MIC (growth inhibition)) | MIC (H. pylori [3]; strain 90-397 (first line, r19), read-out: MIC (growth inhibition)) | MIC (H. pylori [3]; strain 90-397 (second line, r25), read-out: MIC (growth inhibition)) | MIC (H. pylori [3]; strain 90-407 (1), read-out: MIC (growth inhibition)) | MIC (H. pylori [3]; strain 90-407, read-out: MIC (growth inhibition)) | MIC (H. pylori [3]; strain 90-411, read-out: MIC (growth inhibition)) | MIC (H. pylori [3]; strain 90-414 (1), read-out: MIC (growth inhibition)) | MIC (H. pylori [3]; strain 90-414, read-out: MIC (growth inhibition)) | MIC (H. pylori [3]; strain 90-428, read-out: MIC (growth inhibition)) | MIC (H. pylori [3]; strain EH12, read-out: MIC (growth inhibition)) | MIC (H. pylori [3]; strain EH13, read-out: MIC (growth inhibition)) | MIC (H. pylori [3]; strain EH16, read-out: MIC (growth inhibition)) | MIC (H. pylori [3]; strain EH26, read-out: MIC (growth inhibition))
1070 mg/kg: LD50 ([4]; female, Rat ♀)
NCTC11639 (additive effect): combined effect of oxethazaine and RXM (H. pylori [1]; strain NCTC11639) | effect of combined use (H. pylori [1]; the 34th table, strain NCTC11639) | effect of combined use (H. pylori [1]; the 35th table, strain NCTC11639)
1230 mg/kg: LD50 ([2]; male, Mouse ♂)
NCTC11637 (additive effect): combined effect of oxethazaine and RXM (H. pylori [1]; strain NCTC11637) | effect of combined use (H. pylori [1]; the 34th table, strain NCTC11637) | effect of combined use (H. pylori [1]; the 35th table, strain NCTC11637)
≥ 1000 mg/kg: LD50 ([2]; female, Mouse ♀) | LD50 ([4]; male, Rat ♂)
12.5 µg/mL: MIC (H. pylori [3]; strain 89-355, read-out: MIC (growth inhibition))
EH 13 (additive effect): combined effect of oxethazaine and RXM (H. pylori [1]; strain EH 13) | effect of combined use (H. pylori [1]; the 36th table, strain EH 13) | effect of combined use (H. pylori [1]; the 37th table, strain EH 13)
90-407 (additive effect): combined effect of oxethazaine and CAM (H. pylori [1]; strain 90-407)
+: growth of H. pylori (H. pylori [1]; strain 90-407, oxethazaine 3.13 μg/ml, AMPC 0) | growth of H. pylori (H. pylori [1]; strain 90-407, oxethazaine 6.25 μg/ml, AMPC 0) | growth of H. pylori (H. pylori [1]; strain 90-407, oxethazaine 12.5 μg/ml, AMPC 0) | growth of H. pylori (H. pylori [1]; strain 90-414, oxethazaine 3.13 μg/ml, AMPC 0) | growth of H. pylori (H. pylori [1]; strain 90-414, oxethazaine 6.25 μg/ml, AMPC 0) | growth of H. pylori (H. pylori [1]; strain 90-414, oxethazaine 12.5 μg/ml, AMPC 0) | growth of H. pylori (H. pylori [1]; strain NCTC11637, oxethazaine 3.13 μg/ml, CAM 0) | growth of H. pylori (H. pylori [1]; strain NCTC11637, oxethazaine 6.25 μg/ml, CAM 0) | growth of H. pylori (H. pylori [1]; strain NCTC11639, oxethazaine 3.13 μg/ml, CAM 0) | growth of H. pylori (H. pylori [1]; strain NCTC11639, oxethazaine 6.25 μg/ml, CAM 0) | growth of H. pylori (H. pylori [1]; strain NCTC11639, oxethazaine 12.5 μg/ml, CAM 0)
about 5000 times: LD50 values relative to clinical doses ([4]; oral, rats and mice, clinical doses 15 to 40 mg/day)
50 µg/mL: MIC (H. pylori [3]; NCTC11639, strain NCTC11639, read-out: MIC (growth inhibition))
90-428 (synergism): combined effect of oxethazaine and CAM (H. pylori [1]; strain 90-428)
EH 12 (additive effect): combined effect of oxethazaine and RXM (H. pylori [1]; strain EH 12)
